According to publication PMC9311798, “A Novel Class of Potent Anti-Tyrosinase Compounds with Antioxidant Activity, 2-(Substituted phenyl)-5-(trifluoromethyl)benzo[d]thiazoles: In Vitro and In Silico Insights” (Antioxidants, 2022):
Entries after “also recorded” stand apart in the source; their conditions may differ.

How the values were obtained:
mushroom tyrosinase = target: T1, mushroom tyrosinase (Agaricus bisporus, UniProt C7FF04); assay: Kinetic studies on the inhibition of mushroom tyrosinase (Lineweaver–Burk and Dixon plots); assay type: biochemical; details: for Inhibition type: Lineweaver–Burk plots; for Ki: Dixon plot; for Vmax: regardless of 1b concentration
T1 construct: purchased Sigma-Aldrich
T1 sequence (C7FF04 1-392): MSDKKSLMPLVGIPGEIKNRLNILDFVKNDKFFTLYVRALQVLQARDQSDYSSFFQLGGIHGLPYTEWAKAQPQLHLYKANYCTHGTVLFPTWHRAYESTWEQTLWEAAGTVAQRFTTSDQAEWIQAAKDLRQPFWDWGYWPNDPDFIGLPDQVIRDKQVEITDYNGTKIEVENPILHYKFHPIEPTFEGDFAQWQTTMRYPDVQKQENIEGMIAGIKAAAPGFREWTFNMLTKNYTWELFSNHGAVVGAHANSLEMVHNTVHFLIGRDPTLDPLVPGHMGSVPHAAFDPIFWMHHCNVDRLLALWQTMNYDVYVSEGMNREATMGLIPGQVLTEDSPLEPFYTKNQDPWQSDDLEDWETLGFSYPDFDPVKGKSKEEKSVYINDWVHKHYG
Method: Lineweaver–Burk plots of compound 1b were acquired in the presence of L-tyrosine or L-DOPA as substrates. In brief, 10 µL aliquots of DMSO containing compound 1b (final concentrations: 0, 0.1, 0.2, or 0.4 µM in L-tyrosine, and 0, 1, 2, or 4 μM in L-DOPA) were added to the wells of a 96-well plate containing 170 µL of an aqueous solution (final concentrations: 1.0, 2.0, 4.0, 8.0, or 16.0 mM) of L-tyrosine or L-DOPA, sodium phosphate buffer (final concentration: 14.7 mM, pH 6.5), and 20 µL of mushroom tyrosinase (200 units/mL). Initial rates of dopachrome production were determined by measuring the increases in optical density at 475 nm (ΔOD475/min) using a microplate reader (VersaMax^TM, Molecular Devices, Sunnyvale, CA, USA). Maximal velocity (Vmax) was obtained from Lineweaver–Burk plots obtained using five different L-tyrosine or L-DOPA concentrations. Modes of tyrosinase inhibition were determined using plot convergence points.

[1] = system: B16F10 murine melanoma cells; assay: Extracellular melanin content (melanin release into medium) in α-MSH/IBMX-stimulated cells; assay type: cell-based
Method: The anti-melanogenic activities of 1a and 1b were determined using a standard melanin content assay, with minor changes. Briefly, B16F10 cells were seeded in the wells of a 6-well plate at a density of 1 × 10^5 cells/well, and allowed to adhere to well bottoms over 24 h under the conditions used for cell culture (Section 2.3.5). […] Absorbances of culture media at 405 nm were used to determine extracellular melanin contents.

[2] = system: B16F10 murine melanoma cells; assay: Intracellular melanin content in α-MSH/IBMX-stimulated cells; assay type: cell-based
Method: The cultured cells were rinsed with PBS twice and pellets were dissolved in 200 µL of 1N-NaOH solution containing 10% DMSO for 1 h at 60 °C. Cell lysates were then transferred to a 96-well plate, and the melanin absorbances were measured in aqueous DMSO at 405 nm using a microplate reader (VersaMax^TM, Molecular Devices, Sunnyvale, CA, USA).

Compound: Oc1ccc(-c2nc3cc(C(F)(F)F)ccc3s2)c(O)c1 [Compound 1b, 4-(5-(Trifluoromethyl)benzo[d]thiazol-2-yl)benzene-1,3-diol]
- Inhibition type (mushroom tyrosinase; L-DOPA as substrate): competitive inhibitor; also recorded: L-DOPA (Inhibition Type ^a: Competitive)
- Ki (mushroom tyrosinase; L-DOPA): 2450 nM
- Vmax (mushroom tyrosinase; L-DOPA): 0.00497 mM/min
- Inhibition type (mushroom tyrosinase; L-tyrosine as substrate): competitive inhibitor; also recorded: L-Tyrosine (Inhibition Type ^a: Competitive)
- Ki (mushroom tyrosinase; L-tyrosine): 37.6 nM
- Vmax (mushroom tyrosinase; L-tyrosine): 0.0101 mM/min
- melanin release ([1]; 20 µM): reduced melanin release to control levels
- effect on melanin content in media ([1]; 5, 10, 20 µM, α-MSH (1 µM) + IBMX (200 µM), 48 h): concentration-dependently and significantly reduced melanin content increases
- inhibition of α-MSH/IBMX-induced intracellular melanin increase ([2]; 10 µM, compared with kojic acid 20 µM): more potently inhibited α-MSH/IBMX-induced increases in melanin than kojic acid at 20 µM
- intracellular melanin content, lower than untreated control group ([2]; 20 µM, α-MSH/IBMX co-treated cells): 20%
- effect on intracellular melanin content ([2]; 5, 10, 20 µM, α-MSH + IBMX, 48 h): significantly and concentration-dependently reduced intracellular melanin increases
- melting point: 236.2 to 238.2 °C
